# Tests used:
# [1] = molecular target: T1, Recombinant STAT3 protein (STAT3(G127-I722)) (Homo sapiens, UniProt P40763); assay: STAT3 Fluorescence Polarization (FP) Assay; assay type: binding; conditions: 25 nM STAT3(G127-I722), 2 nM 5-FAM-GpYLPQTV-NH2 probe, pH 7.4, 45-minute incubation at room temperature
# T1 construct: Recombinant STAT3 protein (STAT3(G127-I722))
# Method: An FP assay was developed to determine IC50 values for test substances. Recombinant STAT3 protein (STAT3(G127-I722)) at 25 nM was combined with a fluorescently labeled, phosphotyrosine peptide probe (5-FAM-GpYLPQTV-NH2) at 2 nM in FP buffer (10 mM HEPES pH 7.4, 50 mM NaCl. 1 mM EDTA, 0.05% Tween 20, 2 mM DTT). 50 μL of STAT3-probe mixture was added to serial diluted compounds in black, 96-well plates (Greiner BioOne 655076) to a final concentration of 1% DMSO. Reaction components were mixed, and FP was measured after 45-minute incubation at room temperature using a Tecan Spark multimode plate reader. FP signal (mP) was plotted against the log concentration of the test substances and IC50 values were calculated by nonlinear regression analysis using GraphPad Prism software. For STAT3 FP assay, A=≤100 nM; B=>100-1000 nM; C=>1-10 μM; and D=>10 μM.
# [2] = molecular target: T2, Recombinant STAT6 protein (STAT6(W123-T658)) (Homo sapiens, UniProt P42226); assay: STAT6 Fluorescence Polarization (FP) Assay; assay type: binding; conditions: 250 nM STAT6(W123-T658), 2 nM 5-FAM-Ap[…]-NH2 probe, pH 7.4, 45-minute incubation at room temperature
# T2 construct: Recombinant STAT6 protein (STAT6(W123-T658))
# T2 sequence (P42226 123-658): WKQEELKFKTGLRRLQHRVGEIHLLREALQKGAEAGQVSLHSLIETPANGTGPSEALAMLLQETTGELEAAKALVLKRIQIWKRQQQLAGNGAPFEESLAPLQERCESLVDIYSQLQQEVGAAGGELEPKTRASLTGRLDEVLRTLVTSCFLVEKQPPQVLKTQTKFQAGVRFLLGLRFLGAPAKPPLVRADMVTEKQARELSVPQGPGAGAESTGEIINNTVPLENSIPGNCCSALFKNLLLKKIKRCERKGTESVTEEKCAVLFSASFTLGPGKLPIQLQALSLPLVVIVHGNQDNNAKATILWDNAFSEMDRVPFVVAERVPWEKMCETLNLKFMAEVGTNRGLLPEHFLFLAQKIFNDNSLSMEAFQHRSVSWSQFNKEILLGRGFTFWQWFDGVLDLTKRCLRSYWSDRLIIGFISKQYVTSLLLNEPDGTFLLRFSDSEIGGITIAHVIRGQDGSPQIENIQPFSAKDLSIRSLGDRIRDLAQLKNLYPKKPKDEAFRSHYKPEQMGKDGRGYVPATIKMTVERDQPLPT
# Method: An FP assay was developed to determine IC50 values for test substances. Recombinant STAT6 protein (STAT6(W123-T658)) at 250 nM was combined with a fluorescently labeled, phosphotyrosine peptide probe (5-FAM-Ap[…]-NH2) at 2 nM in FP buffer (10 mM HEPES pH 7.4, 50 mM NaCl, 1 mM EDTA, 0.05% Tween 20, 2 mM DTT). 50 μL of STAT6-probe mixture was added to serial diluted compounds in black, 96-well plates (Greiner BioOne 655076) to a final concentration of 1% DMSO. Reaction components were mixed, and FP w as measured after 45-minute incubation at room temperature using a Tecan Spark multimode plate reader. FP signal (mP) was plotted against the log concentration of the test substances and IC50 values were calculated by nonlinear regression analysis using GraphPad Prism software. For STAT6 FP assay. A=≤300 nM; B=>300-3000 nM; C=>3-30 μM; and D=>30 μM.
# [3] = system: pSTAT3 (pY705-STAT3) in PBMC; assay: MSD-pSTAT-PBMC Assay (pSTAT3); assay type: cell-based; conditions: compound 3 hrs, then 10 ng/mL IL-6 for 10 min
# Description: Cryopreserved Peripheral Blood Mononuclear Cells (PBMC) are from AllCells. Recombinant Human […] and IL-6 are from Peprotech. Mouse monoclonal anti-STAT3 antibody, rabbit monoclonal anti-pY705-STAT3 antibody, rabbit monoclonal Anti-pY641-STAT6 antibody, and lysis buffer are from Cell Signaling Technology (CST). Mouse monoclonal anti-STAT6 antibody is from BioLegend. Assay plates, blocker, and anti-rabbit secondary antibody are from Meso Scale Discovery (MSD).
# Cryopreserved PBMCs were thawed out and allowed to recover overnight in IMDM+10% heat-inactivated FBS prior to plating 50,000 (STAT3) or 25,000 (STAT6) cells per well in 96-well U-bottom tissue culture plates. Cells were treated with compound for 3 hrs, then stimulated with 10 ng/mL IL-6 (STAT3) or 1 ng/mL IL-4 (STAT6) for 10 min. Cells were then spun down and washed with ice-cold PBS prior to lysing the cell pellet with 1× lysis buffer (CST) with 1× HALT protease and phosphatase inhibitor cocktail (Thermo). Lysates were transferred to and incubated overnight at 4° C. with shaking in QuickPlex 96-well high bind assay plates (MSD) pre-coated overnight with 30 μL per well of 0.6 μg/mL mouse monoclonal anti-STAT3 antibody (STAT3) or 2 μg/mL mouse monoclonal anti-STAT6 antibody (STAT6) in 1×PBS, and pre-blocked for 1 hour with 3% Blocker-A (MSD). Captured protein in the assay plates were then washed and probed with 25 μL per well of 0.25 μg/ml rabbit monoclonal anti-pY705-STAT3 antibody (STAT3) or 0.18 μg/ml rabbit monoclonal Anti-pY641-STAT6 antibody (STAT6) in 1% Blocker-A for 1 hour at room temperature with shaking, then washed and probed with 25 ul per well of 1 ug/ml Sulfo-TAG Labeled Goat Anti-Rabbit Antibody (MSD) in 1% Blocker-A for 1 hour at room temperature with shaking. Assay plates were then washed and 150 μL of 1× Read Buffer-T (MSD) was added to each well prior to reading on an SQ120 MSD Plate Reader. Assay signal from each sample was subtracted by the signal from unstimulated control wells and normalized to DMSO control wells, IC50 values were calculated using Graph Pad Prism Dose-Response Nonlinear Regression with variable slope. For both pSTAT3 and pSTAT6 A=≤100 nM; B=>100-1000 nM; C=>1000-3000 nM; and D=>3 μM.
# T1 sequence (P40763 127-722): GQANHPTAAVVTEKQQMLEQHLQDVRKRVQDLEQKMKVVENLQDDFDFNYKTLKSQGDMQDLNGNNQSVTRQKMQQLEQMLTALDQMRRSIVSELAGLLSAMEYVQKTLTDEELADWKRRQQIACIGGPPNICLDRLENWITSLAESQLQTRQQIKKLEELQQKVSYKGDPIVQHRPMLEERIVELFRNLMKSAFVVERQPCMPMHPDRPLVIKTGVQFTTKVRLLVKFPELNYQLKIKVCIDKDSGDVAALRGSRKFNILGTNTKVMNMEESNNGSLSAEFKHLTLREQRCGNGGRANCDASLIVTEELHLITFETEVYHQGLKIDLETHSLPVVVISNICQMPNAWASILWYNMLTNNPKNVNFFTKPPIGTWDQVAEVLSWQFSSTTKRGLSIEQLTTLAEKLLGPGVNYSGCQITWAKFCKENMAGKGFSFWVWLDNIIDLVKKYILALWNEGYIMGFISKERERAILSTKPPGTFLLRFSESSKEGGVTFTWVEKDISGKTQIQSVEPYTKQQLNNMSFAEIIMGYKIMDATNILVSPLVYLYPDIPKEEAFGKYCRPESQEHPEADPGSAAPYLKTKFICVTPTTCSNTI
smiles,measurement,setting,value
"O=C1CCC(c2ccc(OCC(=O)N3CCN(c4ccncc4C4CN(C(=O)[C@@H]5CC[C@@H]6C[C@H]7C[C@H]7C[C@H](NC(=O)c7cc8cc(C(F)(F)P(=O)(O)O)ccc8s7)C(=O)N65)C4)CC3)cc2)C(=O)N1 (stereo partly drawn) [Compound 21, ((2-(((3S,6S,7aS,8aR,9aR)-3-(3-(4-(4-(2-(4-(2,6-dioxopiperidin-3-yl)phenoxy)acetyl)piperazin-1-yl)pyridin-3-yl)azetidine-1-carbonyl)-5-oxodecahydro-1H-cyclopropa[d]pyrrolo[1,2-a]azocin-6-yl)carbamoyl)benzo[b]thiophen-5-yl)difluoromethyl)phosphonic acid]",IC50,[1],< 0.1 µM
same,IC50,[2],3 to 30 µM
same,IC50,[3],> 3 µM

# Reference: patent US20260308185A1, “STAT DEGRADERS AND USES THEREOF” (Recludix Pharma, Inc., priority 2023, published 2026)
